ChEMBL document CHEMBL3769318, “The Rational Design of Selective Benzoxazepin Inhibitors of the α-Isoform of Phosphoinositide 3-Kinase Culminating in the Identification of (S)-2-((2-(1-Isopropyl-1H-1,2,4-triazol-5-yl)-5,6-dihydrobenzo[f]imidazo[1,2-d][1,4]oxazepin-9-yl)oxy)propanamide (GDC-0326)” (J Med Chem, 2016)

What was measured:
[1] = molecular target: Phosphatidylinositol 4,5-bisphosphate 3-kinase catalytic subunit alpha isoform (Homo sapiens, UniProt P42336); assay: Inhibition of recombinant PI3K alpha (unknown origin) using PIP2 as substrate by fluorescence polarization assay; details: read-out: Ki(app)
Sequence of Phosphatidylinositol 4,5-bisphosphate 3-kinase catalytic subunit alpha isoform (P42336 whole entry, canonical isoform): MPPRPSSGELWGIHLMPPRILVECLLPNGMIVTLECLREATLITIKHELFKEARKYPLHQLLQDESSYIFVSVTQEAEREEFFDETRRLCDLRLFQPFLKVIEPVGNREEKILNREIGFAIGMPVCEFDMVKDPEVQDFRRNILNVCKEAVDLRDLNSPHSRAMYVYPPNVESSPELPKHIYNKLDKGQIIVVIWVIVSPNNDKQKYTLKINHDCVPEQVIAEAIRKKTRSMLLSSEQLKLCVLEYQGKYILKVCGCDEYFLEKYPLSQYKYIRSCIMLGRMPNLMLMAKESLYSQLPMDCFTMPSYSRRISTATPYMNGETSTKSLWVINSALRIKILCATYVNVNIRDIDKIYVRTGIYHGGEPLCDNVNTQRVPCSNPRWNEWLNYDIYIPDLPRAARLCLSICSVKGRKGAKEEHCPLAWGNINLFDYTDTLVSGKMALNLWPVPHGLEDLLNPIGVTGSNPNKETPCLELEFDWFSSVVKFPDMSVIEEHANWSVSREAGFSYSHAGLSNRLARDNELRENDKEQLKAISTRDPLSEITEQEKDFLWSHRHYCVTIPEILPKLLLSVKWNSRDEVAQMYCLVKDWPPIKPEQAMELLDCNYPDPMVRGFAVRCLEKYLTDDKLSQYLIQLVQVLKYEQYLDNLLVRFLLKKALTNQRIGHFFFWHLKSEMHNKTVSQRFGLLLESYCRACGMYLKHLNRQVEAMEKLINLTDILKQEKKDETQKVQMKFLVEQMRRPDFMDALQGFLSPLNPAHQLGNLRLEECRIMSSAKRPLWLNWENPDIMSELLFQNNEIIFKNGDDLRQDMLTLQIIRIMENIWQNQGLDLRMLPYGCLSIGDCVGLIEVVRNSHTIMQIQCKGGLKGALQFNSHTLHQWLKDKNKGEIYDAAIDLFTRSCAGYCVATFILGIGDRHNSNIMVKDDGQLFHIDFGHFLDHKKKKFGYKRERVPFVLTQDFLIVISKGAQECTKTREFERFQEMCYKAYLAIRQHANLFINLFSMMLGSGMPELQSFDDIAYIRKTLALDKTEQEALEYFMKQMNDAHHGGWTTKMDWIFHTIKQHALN

[2] = Antiproliferative activity against human MCF7-neo/Her2 cells after 3 days by luminescence plate reader method; assay type: functional, cell-based; details: 72 h
[3] = Clearance in Sprague-Dawley rat at 1 mg/kg, iv; assay type: ADME, organism-based; details: in vivo
[4] = Antiproliferative activity against human PC3 cells after 4 days by luminescence plate reader method; assay type: functional, cell-based; details: PC-3, 96 h

Ki [1]	clearance [3]	SMILES	EC50 [2]	EC50 [4]
0.2 nM	–	CC(C)n1ncnc1-c1cn2c(n1)-c1cnc(N(C)CC(N)=O)cc1OCC2	–	–
0.03 nM	33 mL/min/kg	CC(C)n1ncnc1-c1cn2c(n1)-c1ccc(N3CCC[C@H]3C(N)=O)cc1OCC2	10 nM	150 nM
3.2 nM	–	CC(C)n1ncnc1-c1cn2c(n1)-c1cnc(N3CCC[C@@H]3C(N)=O)cc1OCC2	–	–
1 nM	–	COC(=O)Nc1ccc2c(c1)OCCc1cc(-c3nncn3-c3ccccc3Cl)sc1-2	–	–
